Format in all cases: cell-based, human
The subject of experiment [1] is leukocytes. The experiment can be described thus: lipid peroxidation of leukocyte cell membranes measured with fluorescent probe DPPP. As to conditions: contact between leukocytes and treated cotton wool compress, DPPP fluorescence; FIG. 5. The protocol:
Lipid peroxidation of cell membranes during the contact between leukocytes and cotton wool compresses was measured with a fluorescent probe, diphenyl-1-pyrenylphosphine (DPPP), which reacts with membrane peroxides and forms a fluorescent oxide, see Okimoto, Watanabe, et al., 2000 FEBS Letter, vol 474, pages 137-140.

Experiment [2] has as its system leukocytes. The experiment can be described thus: ability of leukocytes to be activated by zymosan after contact with cotton wool compresses. Conditions: after contact with cotton wool compress with additive; FIG. 4. As to the method:
The ability of the leukocytes to react against a microbial agent after contact with the cotton wool compresses was then tested by addition of zymosan, a fungal spore used to test the ability of the leukocytes to kill microbes.

Experiment [3] relates to leukocytes. The experiment can be described thus: ability of leukocytes to kill bacteria in presence of additives in solution (CFU count). Conditions: additive 10 mM in solution; leukocytes 1×10^5 cells/ml and Staphylococcus aureus 1×10^6 cells/ml, 37° C., two hours; FIG. 6. The protocol: The ability of leukocytes to kill bacteria in the presence of glutathione (10 mM) or N-acetylcysteine (10 mM) in solution was studied in the following manner: Leukocytes (1×10^5 cells/ml) and Staphylococcus aureus (1×10^6 cells/ml) were incubated together at 37° C. for two hours. The leukocytes were killed and the remaining bacteria were allowed to grow on a blood agar plate for 24 hours, after which the number of bacterial colonies (CFU) was calculated. Control samples without leukocytes were done in parallel with all the tests. A small number of colonies means that the leukocytes have good ability to kill bacteria.

Experiment [4] deals with leukocytes. Briefly: stress activation of leukocytes in contact with cotton wool compresses, release of reactive oxygen by luminol-enhanced chemiluminescence. Conditions: cotton wool compress with physiological saline solution with glutathione, final concentration 0.05 mM, vs untreated compress; FIG. 3. The protocol: First of all leukocytes were isolated from human veinous blood and the cells were then left in contact with cotton wool compresses and stress activation of the cells was measured as the release of reactive oxygen with luminol-enhanced chemiluminiscense.
From FIG. 1 it is apparent that the leukocytes are activated on contact with cotton wool compresses.
The cellulose is then reduced again with cyanoborohydride.

The structures appear in SMILES notation. “Also recorded” adds a separate entry of the source.

Regarding `N[C@@H](CCC(=O)N[C@@H](CS)C(=O)NCC(=O)O)C(=O)O` [glutathione], the “lipid peroxidation of the cell membrane” value in the experiment on leukocytes [1] is “reduce the lipid peroxidation of the cell membrane”. For the same compound, the “ability of leukocytes to be activated by zymosan” value in the experiment on leukocytes [2] is on record as “retain the ability to be activated by zymosan”. In the experiment on leukocytes [3], the “ability of leukocytes to kill bacteria (number of bacterial colonies, CFU)” value is given as “kill the bacteria completely”. Also, in the experiment with leukocytes [4], the “activation of leukocytes (release of reactive oxygen)” value was “does not affect activation of the leukocytes; also recorded: somewhat increased quantity of reactive oxygen”.

As to `CC(=O)N[C@@H](CS)C(=O)O` [N-acetylcysteine], the “ability of leukocytes to kill bacteria (number of bacterial colonies, CFU)” value in the experiment on leukocytes [3] was “kill the bacteria completely”.

These data come from patent US20050287192A1, “Wound bandage comprising a non-enzymatic antioxidant” (priority 2002, published 2005).
